Patent US20160208246A1, “COMPOSITIONS AND METHODS FOR TREATING A HEMATOLOGICAL MALIGNANCY ASSOCIATED WITH AN ALTERED RUNX1 ACTIVITY OR EXPRESSION” (YEDA RESEARCH AND DEVELOPMENT CO. LTD., priority 2013, published 2016)
Residues, ends and D or L forms follow the SMILES beside them. *: point of attachment. Cbz = O=C(OCc1ccccc1)*; CH2F = FC*

Assays:
RUNX1 = assay: siRNA-mediated RUNX1 KD in Kasumi-1 cells (RT-qPCR, Western blotting); type: cell-based, human; details: Western blot, 50 μM, 24 hrs after 72 hrs siRNA
Text: FIG. 1A, upper panel, is a schematic illustration of RUNX1 (blue) and RUNX1-ETO (A-E) (blue-red) transcripts indicating regions targeted by the siRNAs used to knock down (KD) expression of either RUNX1 (bars underneath RUNX1 marked in green and orange) or A-E (black bar underneath A-E fusion region). […] NO: 49) (as marked in green in the upper panel). Total RNA isolated 24 hrs post electroporation of RUNX1-targeting or non-targeting (NT) control siRNA. Data shown represent mean expression±SE. Shown are results from one of three experiments with the same findings. Primers used for RT-qPCR are presented in Table 1 (in the Examples section which follows). […] Blots were reacted with an antibody (Ab) against RUNX1-N-terminus or Lamin. Results from one of two experiments with the same findings are shown. […] KD efficiency was assessed both by RT-qPCR and immunoblotting. […] Cells were collected, washed once in PBS, and nuclear proteins were extracted and analyzed by Western blotting as previously described [Aziz-Aloya, R. et al., Cell Death (1998) 5, 765-773]. […] Quantitation of cDNAs was performed by qPCR using Roche LC480 LightCycler with sequence-specific primers (Table 1, below) and miScript SYBR Green PCR kit (QIAGEN). Target transcript quantification was calculated relative to ACTB mRNA, which served as an internal control. Standard errors were calculated using REST.

Kasumi-1 cells = assay: Cell cycle analysis (Propidium iodide, FACS); type: cell-based, human; details: 50 μM, 24 hrs, three days post siRNA-delivery
Text: FIGS. 1B and 1C illustrate cell cycle analysis 8 days post transfection with either RUNX1-targeting (SEQ ID NO: 52) or control non-targeting (NT) siRNA. FIG. 1B illustrates cells which were subjected to two successive transfections (at days 0 and 4) with either RUNX1-targeting or NT siRNA. Propidium iodide (PI) was used to assess cellular DNA content by FACS analysis. Bar numbers indicate the relative size (in %) of labeled population out of total cells. Indicated cell cycle phases: subG1; G1; S and G2M; and FIG. 1C are histograms summarizing the distribution of cell population as analyzed in FIG. 1B. Data represents mean±STDV values of five independent experiments.
FIG. 1H illustrates that caspase inhibition rescues Kasumi-1^RX1-KD from apoptosis. […] Histograms show the distribution of cells among cell cycle phases determined as detailed above. […]
FIGS. 2C-2G illustrate that KD of A-E rescues Kasumi-1 cells from RUNX1 KD-induced apoptosis. […] FIGS. 2C-2F, following incubation for 8 days, cells were stained with PI and analyzed by FACS for cell cycle; and FIG. 2G are histograms showing the distribution of cells among cell cycle phases. […]
For cell cycle analysis, cells were stained with Propidium iodide (Sigma-Aldrich) according to standard procedure. […] All data were collected using LSRII flow cytometer (BD Biosciences) and analyzed by FlowJo software.

Structure (SMILES): COC(=O)C[C@H](NC(=O)[C@H](C)NC(=O)[C@@H](NC(=O)OCc1ccccc1)C(C)C)C(=O)CF [Z-VAD-FMK] (Cbz-Val-Ala-Asp(OMe)-CH2F)
- RUNX1 protein levels in Kasumi-1^RX1-KD cells (RUNX1): further reduced
- apoptosis in Kasumi-1^RX1-KD cells (Kasumi-1 cells): completely blocked apoptosis
- subG1 fraction of Kasumi-1^RX1-KD cells (Kasumi-1 cells): profound decrease
